Non-standard residues stand in square brackets, D forms with d. Residues, ends and D or L forms follow the SMILES beside them. *: point of attachment. Asu = N[C@@H](CCCCCC(=O)O)C(=O)O; NHOH = ON*
Columns and labels:
[1] = system: mouse malignant melanoma B16/BL6 cell line; format: cell-based; settings: 72 hours; read-out: 50% proliferation inhibiting concentration B16/BL6 (nM) mean
Excerpt: In order to verify the action of the cyclic tetrapeptide derivative according to the present invention in inhibiting cell proliferation in cancerized cells, the action on the proliferation of the aforementioned B16/BL6 cells was investigated. The evaluation of cell proliferation rates was done utilizing a commercially available measuring kit, specifically, from Promega under the trade name CellTiter 96 Aqueous Non-Radioactive Proliferation Assay Kit. In the measuring kit, the amount of products through reduction of a reagent tetrazolium compound (3-(4,5-dimethylthiazol-2-yl)-5-(3-carboxymethoxyphenyl)-2-(4-sulfophenyl)-2H-tetrazolium, inner salt; MTS) by viable animal cells is determined by detecting spectrophotometrically the color generated from the products. Since the amount of products is proportional to the amount of viable cells, this kit is utilized to evaluate the amount of viable cells.
According to the procedure of Test Example 1, B16/BL6 cells are inoculated in a 96 well microplate and cultured for 24 hours. […] Thereafter, culture is continued for additional 48 hours and 20 μl of a reagent solution in the aforementioned CellTiter 96 Aqueous Non-Radioactive Proliferation Assay Kit is then added. After incubation is continued at 37° C. for 1 hour, the amount of color generation is measured as an absorbance at 490 n musing a microplate reader.
The amount of cell proliferation of a group to which a compound to be tested is added is expressed in a relative value as compared to the standard cell proliferation (100%) in a control group to which no compound to be tested is added. For each compound tested, the amounts of cell proliferation were measured at different concentrations of addition and the dependence of the quantitative cell proliferation on the concentration of addition was investigated.
The test method was in accordance with the above-mentioned procedure, except that the period of incubation after the addition of a compound was 72 hours.

[2] = system: B16; assay: In vivo anti-cancer activity in mouse (solid tumor system); settings: measured day-21, estimated from diameters
Method: (§1) Three mouse cancers Colon26, Meth A and B16 were used to evaluate in vivo anti-cancer activity of the cyclic tetrapeptide compounds according to the present invention in a solid tumor system. The cancer cells were cultured in a conventional manner, suspended in PBS and intradermally transplanted into a mouse ventral portion (10^5). The mouse used was CDF1, Balb/c or BDF1 (male, 7 weeks in age) for Colon 26, Meth A or B16, respectively. On day-4, 7 and 10 for Colon 26, or on day-7, 10, 13 and 16 for Meth A and B16 (day-0 being the day of cancer transplantation), a given amount of solution containing a predetermined amount of a compound to be tested was administered into the tail vein (10, 3 and 1 mg/kg; 2 ml/kg). In this example, the solution for administration used was PBS suspension (as neutralized with NaOH). On day-14 for Colon26 and on day-21 for Meth A and B16, the size of tumor (shorter and longer diameters) was measured. The tumor weight was estimated from the value obtained by calculation from the equation: ½×longer diameter×shorter diameter^2. Anti-tumor effects were based on the estimated tumor weight used as a measure and a tumor weight was estimated for a control group to which an equal amount of a drug-free solution was added; % inhibition was determined on the basis of the difference between the estimated tumor weights for the treated and control groups.

[3] = system: Colon 26; assay: as above; settings: measured day-14, estimated from diameters
Method: as §1

[4] = system: Meth A; assay: as above
Method: as §1

[5] = rat, in vivo, 10 mg/kg
Method: Under anesthesia with Ketamine/Kylazine mixture, SD rats were administered with HDA-31 into the tail vein (10 mg/kg; 2 ml/kg). The drug was dispersed in PBS and neutralized with NaOH and the resulting suspension was used. After administration, blood was taken from the carotid artery at a given interval of time (using heparin as an anti-coagulant) and centrifuged to prepare plasma. HDA-31 in the plasma was extracted with MTBE (methyl-t-butyl-ether) and separated by reverse-phase HPLC and a peak area corresponding to HDA-31 was quantitatively determined with a mass spectrometer.

[6] = system: B16/BL6 cells; assay: MHC class-I molecule expression promoting activity; format: cell-based, mouse; settings: mean of a plurality of assays; 72 hours
[7] = biological target: Mouse histone deacetylase; format: biochemical; settings: enzyme from FM3A cells; [3H]acetyl histone; 37° C. 10 minutes
Method: In an enzyme system using a radio-labelled acetylated histone as a substrate, histone deacetylase enzyme inhibiting activity was evaluated. The basic conditions were in accordance with the method of Yoshida et al. (J. Biol. Chem., 265, 17174-17179, 1990).
Mouse histone deacetylase to be used was partially purified from FM3A cells. Cells were suspended in HDA buffer (15 mM potassium phosphate, 5% glycerol, 0.2 mM EDTA, pH 7.5), homogenized and centrifuged (35000×g, 10 min) to collect the nuclei which in turn were homogenized in the same buffer containing 1 M (NH4)2SO4. After ultrasonic disruption and centrifugation, the concentration of (NH4)2SO4 in the supernatant was increased to 3.5 M to precipitate deacetylase enzyme proteins. This precipitate was redissolved in HDA buffer, dialyzed against HDA buffer, applied to DEAE-cellulose column and eluted in NaCl gradient. Active fractions were used as a histone deacetylase enzyme solution.
As a substrate, [^3H]acetyl histone was used. In a culture solution of FM3A cells in the presence of 5 mM sodium n-butyrate, [^3H]acetate was added, followed by incubation for 30 minutes to radio-label the histone. The histone was prepared in a conventional manner and used as a substrate solution.
An assay was performed by adding a compound to be tested at a given concentration while using a no-addition control group, and by incubating the substrate solution and the enzyme solution at 37° C. for 10 minutes (reaction volume, 100 μl). The enzyme reaction was stopped by adding 10 μl of concentrated hydrochloric acid and the excised [^3H]acetate was extracted with ethyl acetate for radioactivity measurement. The inhibiting activity was expressed by a concentration at which the enzyme activity in the control group was inhibited by 50% (50% inhibiting concentration).

CC[C@H](C)[C@@H]1NC(=O)[C@@H](Cc2ccc(OC)cc2)NC(=O)[C@H](CCCCCC(=O)NO)NC(=O)[C@H]2CCCN2C1=O [HDA-31, cyclo(-L-Asu(NHOH)-D-Tyr(Me)-L-Ile-D-Pro-)] (cyclo([Asu](NHOH)[dY](Me)I[dP]))
IC50 [1]: 5.43 nM | tumor weight ([2]; B16, 1 mg/kg tail vein on day-7, 10, 13 and 16): 258 ± 184 mg | tumor weight ([2]; B16, 3 mg/kg tail vein on day-7, 10, 13 and 16): 280 ± 152 mg | tumor weight ([2]; B16, 10 mg/kg tail vein on day-7, 10, 13 and 16): 120 ± 112 mg | tumor weight ([3]; Colon 26, 1 mg/kg tail vein on day-4, 7 and 10): 756 ± 25 mg | tumor weight ([3]; Colon 26, 3 mg/kg tail vein on day-4, 7 and 10): 677 ± 155 mg | tumor weight ([3]; Colon 26, 10 mg/kg tail vein on day-4, 7 and 10): 726 ± 123 mg | tumor weight ([4]; 1 mg/kg tail vein on day-7, 10, 13 and 16, measured day-21, estimated from diameters): 2100 ± 570 mg | tumor weight ([4]; 3 mg/kg tail vein on day-7, 10, 13 and 16, measured day-21, estimated from diameters): 1230 ± 500 mg | tumor weight ([4]; 10 mg/kg tail vein on day-7, 10, 13 and 16, measured day-21, estimated from diameters): 1470 ± 500 mg | concentration in blood (plasma) after intravenous administration [5]: concentrations in blood exceeding the stated effective concentrations were maintained over a few hours | conc. for 2-fold expression (nM) mean [6]: 1.41 nM | IC50 [7]: 2.08 nM
